Test systems include T47D; HOP-92; ACHN; SNB-19; NCI-H522; UO-31; KM12; A549; RPMI-8226; Hs-578T; HCT-116; COLO 205; MCF7; MOLT-4; EKVX; OVCAR-5; MDA-N; UACC-257; U-251; PC-3.
Holding throughout (assay): NCI-60 cell line screen, 48 h

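Grown in 96-well plates, cells were treated for 48 hours with each compound at five concentrations. Insufficient inhibition: endpoint recorded as highest concentration tested. GI50 = concentration required for 50% inhibition of growth.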 Calls of active or inactive are those of the source. Rule as the data show it: active = GI50 up to about 1.1 µM and inactive = higher.

Regarding `ON(CCc1ccncc1)Cc1ccccc1`, the GI50 in the assay on T47D, in the assay on HOP-92, in the assay with ACHN, in the assay with SNB-19, in the assay on NCI-H522 and with UO-31 was > 100 µM (inactive) throughout. Also, the GI50 with KM12, with A549, in the assay on RPMI-8226, in the assay on Hs-578T, with HCT-116 and with COLO 205 was > 100 µM (inactive) in each case. Besides, the GI50 in the assay with MCF7, in the assay on MOLT-4, in the assay with EKVX and in the assay with OVCAR-5 was > 100 µM (inactive) throughout.
For `CCOc1cc2c(cc1O)/C(=N\O)C[C@@H]1[C@@H]2CC[C@]2(C)[C@@H](O)CC[C@@H]12`, the GI50 in the assay with HOP-92 was 0.00782 µM (active); in the assay with ACHN it was 0.126 µM (active); with MDA-N it was 0.0123 µM (active); with SNB-19 it was < 0.01 µM (active); in the assay with NCI-H522 it was < 0.0182 µM (active); in the assay on UO-31, 0.147 µM (active). The GI50 with KM12 was 0.168 µM (active); in the assay on A549, 0.0521 µM (active); in the assay with RPMI-8226 it was 0.0238 µM (active); in the assay on UACC-257, 33.3 µM (inactive); in the assay on Hs-578T, < 0.0221 µM (active); in the assay with HCT-116, < 0.0211 µM (active). For the same molecule, the GI50 is 8.79 µM (inactive) with COLO 205; < 0.0195 µM (active) in the assay on MCF7; 0.018 µM (active) in the assay on U-251; < 0.023 µM (active) in the assay with MOLT-4; 55.2 µM (inactive) with EKVX; 5.85 µM (inactive) with OVCAR-5.
Turning to `O=C(Cc1ccccc1CCO)NCCc1ccccc1`, the GI50 in the assay with PC-3, in the assay with T47D, with HOP-92, with ACHN, with SNB-19 and with NCI-H522 was > 100 µM (inactive) in each case. Also, the GI50 with UO-31 was 41.8 µM (inactive); with KM12, > 100 µM (inactive); in the assay on A549 it was > 100 µM (inactive); in the assay with RPMI-8226, > 100 µM (inactive); in the assay on UACC-257, > 100 µM (inactive); with Hs-578T it was > 100 µM (inactive). Further, the GI50 in the assay with HCT-116, in the assay with COLO 205, in the assay on MCF7, with U-251, in the assay on MOLT-4 and with EKVX was > 100 µM (inactive) in each case. Further, the GI50 in the assay with OVCAR-5 was > 100 µM (inactive).
Regarding `COc1ccc(NC(=O)C2=C(SC)C(=O)N=C2N)cc1`, the GI50 in the assay on PC-3, in the assay with T47D, with HOP-92, in the assay on ACHN, with SNB-19 and with UO-31 was > 100 µM (inactive) each time. Besides, the GI50 with KM12, in the assay on RPMI-8226, in the assay on UACC-257, in the assay on Hs-578T, in the assay with HCT-116 and in the assay on COLO 205 was > 100 µM (inactive) throughout. In addition, the GI50 in the assay with U-251, with MOLT-4 and with EKVX was > 100 µM (inactive) throughout.
Turning to `C/C(=N\Nc1nc2cccnc2s1)c1ccccn1`, the GI50 in the assay on PC-3 was 0.0202 µM (active); with HOP-92 it was 0.37 µM (active); with ACHN it was < 0.01 µM (active); in the assay on MDA-N, 1.81 µM (inactive); in the assay on SNB-19, 0.491 µM (active); with NCI-H522 it was < 0.01 µM (active). Further, the GI50 with UO-31 was 0.0158 µM (active); in the assay on KM12 it was 0.273 µM (active); in the assay with A549 it was 0.245 µM (active); with RPMI-8226 it was < 0.0143 µM (active); with UACC-257 it was < 0.01 µM (active); in the assay on Hs-578T, 0.436 µM (active). Also, the GI50 is < 0.01 µM (active) in the assay with HCT-116; < 0.01 µM (active) with COLO 205; 0.0136 µM (active) in the assay on MCF7; < 0.0189 µM (active) in the assay with U-251; < 0.01 µM (active) with MOLT-4; < 0.01 µM (active) in the assay with EKVX. Further, the GI50 in the assay on OVCAR-5 is 0.845 µM (active).
Consider `O=P1(O)c2ccccc2CCc2ccccc21`, for which the GI50 in the assay on PC-3, in the assay on HOP-92, in the assay with MDA-N, in the assay on SNB-19, in the assay on NCI-H522 and with UO-31 was > 100 µM (inactive) in each case. Moreover, the GI50 with KM12, with A549, in the assay with RPMI-8226, in the assay with UACC-257, with Hs-578T and in the assay with HCT-116 was > 100 µM (inactive) throughout. Besides, the GI50 in the assay with COLO 205, with MCF7, with MOLT-4 and with EKVX was > 100 µM (inactive) in each case.
In the case of `CN(C)CCNC(=O)c1cccc2nc3c(C(=O)NCCN(C)C)cccc3nc12`, the GI50 is 0.76 µM (active) in the assay on PC-3; 4.34 µM (inactive) in the assay with T47D; 2.9 µM (inactive) in the assay on HOP-92; 0.668 µM (active) in the assay with ACHN; 1.11 µM (active) in the assay on SNB-19; 0.458 µM (active) with NCI-H522. Further, the GI50 in the assay on UO-31 is 1.41 µM (inactive); in the assay on KM12, 1.26 µM (inactive); in the assay with A549, 1.57 µM (inactive); in the assay on RPMI-8226, 1.19 µM (inactive); in the assay with UACC-257 it was 2.14 µM (inactive); in the assay with Hs-578T it was 1.89 µM (inactive). Further, the GI50 is 0.603 µM (active) in the assay with HCT-116; 0.612 µM (active) in the assay with COLO 205; 0.706 µM (active) with MCF7; 0.632 µM (active) with U-251; 0.43 µM (active) in the assay with MOLT-4; 1.49 µM (inactive) with EKVX. Further, the GI50 in the assay with OVCAR-5 is 2.3 µM (inactive).
Regarding `COc1cc(Oc2nc3ccccc3nc2C(=O)O)cc(OC)c1OC`, the GI50 in the assay with PC-3, in the assay with T47D, in the assay with HOP-92, in the assay with ACHN, in the assay on SNB-19 and in the assay on NCI-H522 was > 100 µM (inactive) in each case. The GI50 in the assay with UO-31, in the assay with KM12, with A549, in the assay on RPMI-8226, in the assay with UACC-257 and in the assay on Hs-578T was > 100 µM (inactive) throughout. Moreover, the GI50 with HCT-116, in the assay with COLO 205, in the assay on U-251, in the assay on MOLT-4, in the assay with EKVX and in the assay with OVCAR-5 was > 100 µM (inactive) each time.
Regarding `COc1cc2cc[n+]3c4cc(OC)c(OC)cc4c(C)cc3c2cc1OC`, the GI50 is > 100 µM (inactive) with HOP-92; > 100 µM (inactive) in the assay with ACHN; 29.3 µM (inactive) in the assay with SNB-19; > 100 µM (inactive) with NCI-H522; > 100 µM (inactive) in the assay with UO-31; > 100 µM (inactive) with KM12. Besides, the GI50 was > 100 µM (inactive) in the assay on A549; > 100 µM (inactive) in the assay with RPMI-8226; 88.7 µM (inactive) with UACC-257; > 100 µM (inactive) in the assay on HCT-116; 89.1 µM (inactive) with COLO 205; 70 µM (inactive) in the assay with U-251. The GI50 in the assay on MOLT-4, with EKVX and with OVCAR-5 was > 100 µM (inactive) in each case.
On to `O=C1C=CC2(O)OCC3C=C4O[C@@H]5OC6(CCCCC6)O[C@@H]5C4[C@@H]2[C@@H]13` (some centres undefined), for which the GI50 was 13.2 µM (inactive) with HOP-92; 26.1 µM (inactive) with ACHN; > 100 µM (inactive) in the assay on SNB-19; 11.3 µM (inactive) in the assay on NCI-H522; 18.6 µM (inactive) in the assay with UO-31; 38.5 µM (inactive) in the assay on KM12. Moreover, the GI50 in the assay with A549 was > 100 µM (inactive); in the assay on RPMI-8226, 16.2 µM (inactive); in the assay on UACC-257, 17.8 µM (inactive); with HCT-116 it was 15.8 µM (inactive); in the assay on COLO 205, 15.3 µM (inactive); with U-251, > 100 µM (inactive). Also, the results for the GI50 in the assay with MOLT-4, in the assay with EKVX and with OVCAR-5 were 9.25 µM (inactive), 38.3 µM (inactive) and 31.8 µM (inactive), respectively.
As to `Cc1[nH]n(C2=NCCN2)c(=O)c1C`, the GI50 in the assay with PC-3, with T47D, in the assay with HOP-92, in the assay with ACHN, in the assay on SNB-19 and with NCI-H522 was > 100 µM (inactive) throughout. Also, the GI50 with UO-31, in the assay with KM12, with A549, in the assay with RPMI-8226, in the assay on UACC-257 and with Hs-578T was > 100 µM (inactive) in each case. Also, the GI50 in the assay on HCT-116, in the assay with COLO 205, in the assay with MCF7, in the assay on U-251, with MOLT-4 and in the assay on EKVX was > 100 µM (inactive) throughout. Moreover, the GI50 with OVCAR-5 was > 100 µM (inactive).
Regarding `COc1ccc(NCc2cc(OC)c(OC)c(OC)c2)cc1`, the GI50 was 0.912 µM (active) in the assay on PC-3; 1.39 µM (inactive) in the assay on HOP-92; 0.0867 µM (active) in the assay with MDA-N; 0.698 µM (active) in the assay with SNB-19; 0.307 µM (active) in the assay with NCI-H522; 0.201 µM (active) with KM12. For the same molecule, the GI50 in the assay on A549 is 0.597 µM (active); in the assay with RPMI-8226, 0.612 µM (active); with Hs-578T it was 0.641 µM (active); in the assay on HCT-116 it was 0.408 µM (active); in the assay with COLO 205, 0.291 µM (active); in the assay on MCF7, 0.491 µM (active). Further, the GI50 was 0.431 µM (active) in the assay with U-251, 0.493 µM (active) with MOLT-4 and 4.74 µM (inactive) in the assay on EKVX.

(Values after ChEMBL document CHEMBL1201862, “PubChem BioAssay data set” (2004).)
